Reference: patent US10702589B2, “Compositions and methods of treating neurological disorder and stress-induced conditions” (Ann and Robert H. Lurie Children's Hospital of Chicago, priority 2016, dated 2020)

System: AkrRE1/2 luciferase reporters
Assay: AkrRE1/2 luciferase reporter assay with mevalonate pathway metabolites in primary CGE and MGE cells
Assay type: cell-based, mouse
Details: FOH 0.1-100 μM, GGOH 0.01-100 μM, FIG. 2G-J
From the text: For all luciferase experiments, enhancers were cloned into the pGL3 promoter vector (Promega) using the KpnI and NheI restriction sites on the 5′ and 3′ sites, respectively. The Calb1 enhancers (site 1, site 2, and site 3), AkrR enhancers (site 1 and site 2), NPY enhancers (site 1 and site 2), and SST enhancer (site 1) were identified by MACS2 peak analysis of ChIP-seq (DNA sequences obtained from the UCSC genome browser). Primers were designed to PCR amplify enhancer sequences from C57BL/6J mouse genomic DNA into expression plasmids.
MGE and CGE tissues were dissected from E13.5 Swiss Webster embryos, dissociated in L15 media by pipetting several times, and spun through a cell strainer for single cell preparations. Briefly, cells were seeded at a density of 2.5×10^5 cells per cm^2 (Flandin et al. 2011). One day prior to seeding cells, 24-well plates were coated with poly-L-lysine (30 μg/mL; Sigma) and laminin (5 μg/mL; Sigma), while 96-well plates were coated with poly-L-lysine (3 μg/mL; Sigma) and laminin (5 μg/mL; Sigma). Initially, cells were seeded in neurobasal medium (DMEM/F-12 supplemented with L-glutamate, B-27 (Gibco), N2 supplement (Gibco), bovine pituitary extract (35 μg/mL; Life Technologies), mito+ serum extender (BD Biosciences), penicillin (100 U/mL; Gibco), streptomycin (100 μg/mL; Gibco), and glutamax (0.8 mM; Gibco)). […]

CC(C)=CCCC(C)=CCCC(C)=CCO [FOH, farnesol]
effect on AkrRE1/2 luciferase reporters, normalized to buffer alone: dose-dependent, enhancer- and region-specific effects

CC(C)=CCC/C(C)=C/CC/C(C)=C/CC/C(C)=C/CO [GGOH, geranylgeraniol]
effect on AkrRE1/2 luciferase reporters, normalized to buffer alone: dose-dependent, enhancer- and region-specific effects
